The subject of one test is uterus. The test can be described thus: Wet uterine weight in ovariectomized rats (post-menopausal model). It is filed as in vivo, female Sprague Dawley rats (ovariectomized). Conditions: Rattus norvegicus, 96 h, oral, daily for 4 days, OVX rats, read-out: Uterine Weight (% increase vs. OVX). The procedure:
In the examples illustrating the methods, a post-menopausal model was used in which effects of different treatments upon circulating lipids were determined.
(§1) Seventy-five day old female Sprague Dawley rats (weight range of 200 to 225 g) were obtained from Charles River Laboratories (Portage, Mich.). The animals were either bilaterally ovariectomized (OVX) or exposed to a Sham surgical procedure at Charles River Laboratories, and then shipped after one week. Upon arrival, they were housed in metal hanging cages in groups of 3 or 4 per cage and had ad libitum access to food (calcium content approximately 0.5%) and water for one week. Room temperature was maintained at 22.2°±1.7° C. with a minimum relative humidity of 40%. The photoperiod in the room was 12 hours light and 12 hours dark.
(§2) Dosing Regimen Tissue Collection. After a one week acclimation period (therefore, two weeks post-OVX) daily dosing with test compound was initiated. 17a-ethynyl estradiol or the test compound were given orally, unless otherwise stated, as a suspension in 1% carboxymethylcellulose or dissolved in 20% cyclodextrin. Animals were dosed daily for 4 days. Following the dosing regimen, animals were weighed and anesthetized with a ketamine: Xylazine (2:1, V:V) mixture and a blood sample was collected by cardiac puncture. The animals were then sacrificed by asphyxiation with CO2, the uterus was removed through a midline incision, and a wet uterine weight was determined.
(§3) The data presented in the Tables 1 below reflects the response of 5 to 6 rats per treatment.

Test [1] deals with Uterine Eosinophil Peroxidase (EPO). Kind of test: Uterine Eosinophil Peroxidase (EPO) Assay. It is filed as in vivo, female Sprague Dawley rats (ovariectomized). More on the design: Uterine EPO (V. max): unit not given here. As to conditions: oral, daily for 4 days, OVX rats, 450 nm.
Text: as §1, §2
Uterine Eosinophil Peroxidase (EPO) Assay. Uteri were kept at 4° C. until time of enzymatic analysis. The uteri were then homogenized in 50 volumes of 50 mM Tris buffer (pH-8.0) containing 0.005% Triton X-100. Upon addition of 0.01% hydrogen peroxide and 10 mM O-phenylenediamine (final concentrations) in Tris buffer, increase in absorbance was monitored for one minute at 450 nm. The presence of eosonophils in the uterus is an indication of estrogenic activity of a compound. The maximal velocity of a 15 second interval was determined over the initial, linear portion of the reaction curve.
As is expressed in the below data, estrogenicity also was assessed by evaluating the adverse response of eosinophil infiltration into the uterus.
as §3

A further test deals with Serum Cholesterol. The test can be described thus: Serum cholesterol analysis in ovariectomized rats. It is filed as in vivo, female Sprague Dawley rats (ovariectomized). Conditions: Rattus norvegicus, 96 h, oral, daily for 4 days, OVX rats, read-out: Serum Cholesterol (% decrease vs. OVX).
Text: as §1, §2
Cholesterol Analysis. Blood samples were allowed to clot at room temperature for 2 hours, and serum was obtained following centrifugation for 10 minutes at 3000 rpm. Serum cholesterol was determined using a Boehringer Mannheim Diagnostics high performance cholesterol assay. Briefly the cholesterol was oxidized to cholest-4-en-3-one and hydrogen peroxide. The hydrogen peroxide was then reacted with phenol and 4-aminophenazone in the presence of peroxidase to produce a p-quinone imine dye, which was read spectrophotemetrically at 500 nm. Cholesterol concentration was then calculated against a standard curve. The entire assay was automated using a Biomek Automated Workstation.
as §3

The test system of the next test is Distal Femur Metaphysis. The test can be described thus: Osteoporosis test, distal femur metaphysis X-ray image analysis. It is filed as in vivo, female Sprague Dawley rats (ovariectomized). Conditions: oral, daily for 35 days, in 20% hydroxypropyl b-cyclodextrin. From the text:
Seventy-five day old female Sprague Dawley rats (weight range of 200 to 225 g) were obtained from Charles River Laboratories (Portage, Mich.). The animals were either bilaterally ovariectomized (OVX) or exposed to a Sham surgical procedure at Charles River Laboratories, and then shipped after one week. Upon arrival, they were housed in metal hanging cages in groups of 3 or 4 per cage and had ad libitum access to food (calcium content approximately 0.5%) and water for one week. Room temperature was maintained at 22.2°±1.7° C. with a minimum relative humidity of 40%. The photoperiod in the room was 12 hours light and 12 hours dark. Following the General Preparation Procedure, infra, the rats were treated daily for 35 days (6 rats per treatment group) and sacrificed by carbon dioxide asphyxiation on the 36th day. The 35 day time period was sufficient to allow maximal reduction in bone density, measured as described herein. At the time of sacrifice, the uteri were removed, dissected free of extraneous tissue, and the fluid contents were expelled before determination of wet weight in order to confirm estrogen deficiency associated with complete ovariectomy. […] The uteri were then placed in 10% neutral buffered formalin to allow for subsequent histological analysis. The right femurs were excised and digitilized x-rays generated and analyzed by an image analysis program (NIH image) at the distal metaphysis. The proximal aspect of the tibiae from these animals were also scanned by quantitative computed tomography. In accordance with the above procedures, compounds of the present invention and ethynyl estradiol (EE2) in 20% hydroxypropyl b-cyclodextrin were orally administered to test animals. Distal femur metaphysis data presented in Tables 2 and 3 below are the results of formula I compound treatments compared to intact and ovariectomized test animals. Results are reported as percent protection relative to ovariectomy.

The test system of test [2] is MCF-7 breast adenocarcinoma cells. The test can be described thus: MCF-7 Proliferation Assay (tritiated thymidine). As to conditions: Homo sapiens, MCF7; MCF-7 cells, 48 hours, tritiated thymidine pulse 4 hours. It is filed as cell-based. The procedure:
MCF-7 breast adenocarcinoma cells (ATCC HTB 22) were maintained in MEM (minimal essential medium, phenol red-free, Sigma, St. Louis, Mo.) supplimented with 10% fetal bovine serum […] (V/V), L-glutamine (2 mM), sodium pyruvate (1 mM), HEPES {(N-[2-hydroxyethyl]piperazine-N'-[2-ethanesulfonic acid]10 mM)}, non-essential amino acids and bovine insulin (1 ug/mL) (maintenance medium). Ten days prior to assay, MCF-7 cells were switched to maintenance medium supplemented with 10% dextran coated charcoal stripped fetal bovine serum (DCC-FBS) assay medium) in place of 10% FBS to deplete internal stores of steroids. MCF-7 cells were removed from maintenance flasks using cell dissociation medium (Ca++/Mg++ free HBSS (phenol red-free) supplemented with 10 mM HEPES and 2 mM EDTA). Cells were washed twice with assay medium and adjusted to 80,000 cells/mL. Approximately […] (8,000 cells) were added to flat-bottom microculture wells (Costar 3596) and incubated at 37° C. in a 5% CO2 humidified incubator for 48 hours to allow for cell adherence and equilibration after transfer. Serial dilutions of drugs or DMSO as a diluent control were prepared in assay medium and […] to triplicate microcultures followed by […] assay medium for a final volume of […]. After an additional 48 hours at 37° C. in a 5% CO2 humidified incubator, microcultures were pulsed with tritiated thymidine (1 uCi/well) for 4 hours. Cultures were terminated by freezing at -70° C. for 24 hours followed by thawing and harvesting of microcultures using a Skatron Semiautomatic Cell Harvester. Samples were counted by liquid scintillation using a Wallac BetaPlace b counter. Results in Table 3 below show the IC50 for certain compounds of the present invention.

The structures appear in SMILES notation.

Six compounds from patent US5726186A, “Pentacyclic compounds, intermediates, processes, compositions, and methods” (Eli Lilly and Company, priority 1996, dated 1998) can be followed below.

As usually defined, the IC50 is the concentration at which inhibition is half-maximal.

As for `Oc1ccc2c(c1)OC(c1ccc(OCCN3CCCCC3)cc1)c1c-2sc2cc(O)ccc12` (stereo not shown) [Example 1, 3,9-Dihydroxy-6-[4-[2-(1-piperidinyl)ethoxy]phenyl]-6-H-[1]benzothieno[3,2-c][1]benzopyran], in the test on uterus, the change in vivo at 0.1 mg/kg came to 25.3%. Also, the change in vivo at 1 mg/kg with uterus came out at 9.2%. Further, the change in vivo at 10 mg/kg in the test with uterus was determined as 5.9%. The “Uterine EPO (V. max)” value in test [1] (0.1 mg/kg) worked out at 7.8; in test [1] (1.0 mg/kg), 3.0; in test [1] (10.0 mg/kg) it was 2.1. Moreover, the inhibition in vivo at 0.1 mg/kg in the test on Serum Cholesterol is 72.8%. The inhibition in vivo at 1 mg/kg with Serum Cholesterol was found to be 51%. In addition, the inhibition in vivo at 10 mg/kg in the test on Serum Cholesterol was found to be 54.6%. For the same compound, the “Distal Femur Metaphysis (X-ray Image Analysis-Gray Score), percent protection relative to ovariectomy” value with Distal Femur Metaphysis (0.01 mg/kg) came out at 14.2%; with Distal Femur Metaphysis (0.1 mg/kg), 49.8%; in the test with Distal Femur Metaphysis (1.0 mg/kg) it was 51.7%; in the test with Distal Femur Metaphysis (10.0 mg/kg), 48.2%. In test [2], this compound returned an IC50 of 0.2 nM.

For `CC(C)(C)C(=O)Oc1ccc2c(c1)OC(c1ccc(OCCN3CCCCC3)cc1)c1c-2sc2cc(OC(=O)C(C)(C)C)ccc12` (stereo not shown) [Example 4, 3,9-Bis(pivaloyloxy)-6-[4-[2-(1-piperidinyl)ethoxy]phenyl]-6-H-[1]benzothieno[3,2-c][1]benzopyran], in the test with uterus, the change in vivo at 0.1 mg/kg was 10% and the change in vivo at 1 mg/kg is 15.3%. Moreover, the “Uterine EPO (V. max)” value in test [1] (0.1 mg/kg) was 3.3. For the same compound, the “Uterine EPO (V. max)” value in test [1] (1.0 mg/kg) amounted to 3.3. Further, in the test on Serum Cholesterol, the inhibition in vivo at 0.1 mg/kg was found to be 62.6% and the inhibition in vivo at 1 mg/kg was found to be 48.2%. Moreover, the IC50 in test [2] came to 5 nM.

As to `CCCCS(=O)(=O)Oc1ccc2c(c1)OC(c1ccc(OCCN3CCCCC3)cc1)c1c-2sc2cc(OS(=O)(=O)CCCC)ccc12` (stereo not shown) [Example 5, 3,9-Bis(1-butylsulfonyloxy)-6-[4-[2-(1-piperidinyl)ethoxy]phenyl]-6-H-[1]benzothieno[3,2-c][1]benzopyran], in the test on uterus, the change in vivo at 0.1 mg/kg is -5.1% and the change in vivo at 1 mg/kg came out at 18.6%. The “Uterine EPO (V. max)” value in test [1] (0.1 mg/kg) was found to be 4.5. For the same compound, the “Uterine EPO (V. max)” value in test [1] (1.0 mg/kg) is recorded as 4.8. In the test with Serum Cholesterol, the inhibition in vivo at 0.1 mg/kg is -9% and the inhibition in vivo at 1 mg/kg worked out at 61.3%. This compound yielded a half-inhibitory concentration (IC50) in test [2] of 1000 nM.

In the case of `O=S(=O)(Oc1ccc2c(c1)OC(c1ccc(OCCN3CCCCC3)cc1)c1c-2sc2cc(OS(=O)(=O)C(F)(F)F)ccc12)C(F)(F)F` (stereo not shown) [Example 6, 3,9-Bis(trifluoromethanesulfonyloxy)-6-[4-[2-(1-piperidinyl)ethoxy]phenyl]-6-H-[1]benzothieno[3,2-c][1]benzopyran], in the test on uterus, the change in vivo at 0.1 mg/kg was determined as 23%, the change in vivo at 1 mg/kg was found to be 6.4% and the change in vivo at 10 mg/kg stood at 50%. Also, the “Uterine EPO (V. max)” value in test [1] (0.1 mg/kg) came to 4.2. Moreover, the “Uterine EPO (V. max)” value in test [1] (1.0 mg/kg) is reported as 1.8. Moreover, the “Uterine EPO (V. max)” value in test [1] (10.0 mg/kg) worked out at 3.6. In addition, in the test on Serum Cholesterol, the inhibition in vivo at 0.1 mg/kg is -2.5%, the inhibition in vivo at 1 mg/kg was 9.9% and the inhibition in vivo at 10 mg/kg was -11.4%. Further, the IC50 in test [2] is 500 nM.

As for `Oc1ccc2c(c1)OC(c1ccc(OCCN3CCCCC3)cc1)c1c-2oc2cc(O)ccc12` (stereo not shown) [Example 11, 3,9-Dihydroxy-6-[4-[2-(1-piperidinyl)ethoxy]phenyl]-6-H-benzofuro[3,2-c][1]benzopyran], in the test on uterus, the change in vivo at 0.1 mg/kg is -8.8%, the change in vivo at 1 mg/kg was 3% and the change in vivo at 10 mg/kg is -12.6%. Further, the “Uterine EPO (V. max)” value in test [1] (0.1 mg/kg) amounted to 2.7. Moreover, the “Uterine EPO (V. max)” value in test [1] (1.0 mg/kg) was 4.2. For the same compound, the “Uterine EPO (V. max)” value in test [1] (10.0 mg/kg) is 4.2. Besides, in the test on Serum Cholesterol, the inhibition in vivo at 0.1 mg/kg was found to be 17.4%, the inhibition in vivo at 1 mg/kg was determined as 30.9% and the inhibition in vivo at 10 mg/kg came to 36.3%. The midpoint of inhibition in test [2], the IC50, lay at 0.7 nM.

In the case of `Oc1ccc2c(c1)CN(c1ccc(OCCN3CCCCC3)cc1)c1c-2ccc2cc(O)ccc12` [Example 14, 2,8-Dihydroxy-5-[4-[2-(1-piperidinyl)ethoxy]phenyl]-6H-benzo[c]phenanthridine], the change in vivo at 0.01 mg/kg with uterus (0.01 mg/kg) is -0.6%. Further, in the test on uterus, the change in vivo at 0.1 mg/kg turned out to be 60% and the change in vivo at 1 mg/kg was found to be 49.1%. Moreover, the “Uterine EPO (V. max)” value in test [1] (0.01 mg/kg) was 2.7. The “Uterine EPO (V. max)” value in test [1] (0.1 mg/kg) is 5.4. For the same compound, in test [1] (1.0 mg/kg), the “Uterine EPO (V. max)” value was determined as 36.0. Further, the inhibition in vivo at 0.01 mg/kg with Serum Cholesterol (0.01 mg/kg) worked out at 24.8%. For the same compound, in the test with Serum Cholesterol, the inhibition in vivo at 0.1 mg/kg came out at 59.5% and the inhibition in vivo at 1 mg/kg came to 60.7%. In test [2], this compound had an IC50 of 1 nM.
